# Measurements reported in paper PMC9395488, “First-in-human study of IM156, a novel potent biguanide oxidative phosphorylation (OXPHOS) inhibitor, in patients with advanced solid tumors” (Investigational New Drugs, 2022).
# Test system: patients with advanced solid tumors
# Experiment: First-in-human phase 1 dose-escalation study: safety, DLTs, adverse events
# Type: in vivo
# Description: This multicenter first-in-human dose-escalation phase 1 study (clinicaltrials.gov identifier: NCT03272256) was designed to determine the MTD or RP2D and to evaluate the safety and tolerability of IM156. Secondary endpoints included PK characteristics, efficacy assessment (objective response rate [ORR], disease control rate [DCR], duration of response [DoR] and progression-free survival [PFS]). Furthermore, exploratory objectives included identification and profiling of IM156 metabolites, evaluations of exploratory PD markers of IM156, and evaluations of any potential relationship between putative biomarkers and safety/efficacy parameters of IM156. The study was conducted in accordance with Good Clinical Practice, the International Council for Harmonisation, and guidelines governing clinical study conduct and the ethical principles originating from the Declaration of Helsinki. The study was approved by each Institutional Review Board and patients provided written informed consent. Patients were enrolled at three sites in South Korea.
# The initial dose and schedule of IM156 was chosen based on animal toxicology studies. […] IM156 was administered in the fasted state, with no food for at least 2 h before and 1 h after dosing.
# Three DLT-evaluable patients were enrolled at each dose level. If there were no DLTs or other prohibitive adverse events (AEs), the Safety Committee was allowed to recommend escalation to the next highest dose level. If 1 DLT occurred in the first 3 DLT-evaluable patients, enrollment in that cohort was expanded to an additional 3 DLT-evaluable patients; if ≥ 2 DLTs were reported in a cohort, that dose was considered above the MTD.
# Safety was assessed through vital signs, weight, laboratory assessments, physical examinations, electrocardiogram, and reporting of AEs as graded by the National Cancer Institute’s Common Terminology Criteria for Adverse Events v4.03 (NCI-CTCAE).
# DLTs were defined as the following AEs if they were attributed as related to IM156: asymptomatic grade 4 neutropenia lasting for ≥ 5 days; febrile neutropenia, regardless of grade; grade 4 thrombocytopenia or grade 3 thrombocytopenia with bleeding; any grade ≥ 3 non-hematologic AE (except grade 3 hypertension and grade 3 nausea, vomiting or diarrhea for which proper measures for prevention and treatment were not implemented, and alopecia); blood lactate levels > 5 mmol; grade ≥ 2 AE prohibiting dosing of IM156 for ≥ 21 continuous days except for alterations in serum calcium or phosphorus levels. The safety analysis includes all patients who received at least one dose of study drug.
# The safety population was defined as all patients who received at least one dose of IM156. The PK population was not defined in the protocol but included all patients with sufficient PK data to perform adequate PK modeling. The efficacy population included all patients who underwent at least one tumor imaging assessment while receiving IM156. Safety was assessed using descriptive statistics (e.g., DLTs, AEs, laboratory tests, physical examination, 12-lead ECG). The incidence and number of events were reported for the DLTs observed in Cycle 1 per dose group. […] Adverse events and TRAEs were standardized with the System Organ Class and the Preferred Term using the Medical Dictionary for Regulatory Activities v23.0. In addition, TEAEs, serious adverse events (SAEs), TEAE severity, and TEAEs leading to withdrawal were presented by dose group. Efficacy data were to be presented by Waterfall and Swim Lane plots. Time to event endpoints (e.g., DoR, PFS) were determined using Kaplan–Meier estimations with the median value for each endpoint summarized.
# [1] = DL3 400 mg orally every other day (n=3)
# [2] = DL4 800 mg orally every other day (n=3)
compound,measurement,setting,value
NC(=Nc1ccc(OC(F)(F)F)cc1)N=C(N)N1CCCC1 [IM156],"TRAE Blood Lactic Acid increased, > G3 (patients)","DL3 400 mg QOD oral, N = 3",0
same,"TRAE Blood Lactic Acid increased, All grades (patients)","DL3 400 mg QOD oral, N = 3",0
same,"TRAE Constipation, > G3 (patients)","DL3 400 mg QOD oral, N = 3",0
same,"TRAE Constipation, All grades (patients)","DL3 400 mg QOD oral, N = 3",0
same,"TRAE Decreased appetite, > G3 (patients)","DL3 400 mg QOD oral, N = 3",0
same,"TRAE Decreased appetite, All grades (patients)","DL3 400 mg QOD oral, N = 3",0
same,"TRAE Diarrhoea, > G3 (patients)","DL3 400 mg QOD oral, N = 3",0
same,"TRAE Diarrhoea, All grades (patients)","DL3 400 mg QOD oral, N = 3",0
same,"TRAE Fatigue, > G3 (patients)","DL3 400 mg QOD oral, N = 3",0
same,"TRAE Fatigue, All grades (patients)","DL3 400 mg QOD oral, N = 3",0
same,"TRAE Insomnia, > G3 (patients)","DL3 400 mg QOD oral, N = 3",0
same,"TRAE Insomnia, All grades (patients)","DL3 400 mg QOD oral, N = 3",1
same,"TRAE Nausea, > G3 (patients)","DL3 400 mg QOD oral, N = 3",0
same,"TRAE Nausea, All grades (patients)","DL3 400 mg QOD oral, N = 3",3
same,"TRAE Vomiting, > G3 (patients)","DL3 400 mg QOD oral, N = 3",0
same,"TRAE Vomiting, All grades (patients)","DL3 400 mg QOD oral, N = 3",1
same,TEAE Adrenal insufficiency grade 1,[1],0
same,TEAE Adrenal insufficiency grade 2,[1],0
same,TEAE Adrenal insufficiency grade 3,[1],0
same,TEAE Adrenal insufficiency grade 4,[1],0
same,TEAE Anaemia grade 1,[1],0
same,TEAE Anaemia grade 2,[1],0
same,TEAE Anaemia grade 3,[1],0
same,TEAE Anaemia grade 4,[1],0
same,TEAE Appendicitis perforated grade 1,[1],0
same,TEAE Appendicitis perforated grade 2,[1],0
same,TEAE Appendicitis perforated grade 3,[1],0
same,TEAE Appendicitis perforated grade 4,[1],0
same,TEAE Back pain grade 1,[1],0
same,TEAE Back pain grade 2,[1],0
same,TEAE Back pain grade 3,[1],0
same,TEAE Back pain grade 4,[1],0
same,TEAE Cystitis grade 1,[1],0
same,TEAE Cystitis grade 2,[1],0
same,TEAE Cystitis grade 3,[1],0
same,TEAE Cystitis grade 4,[1],0
same,TEAE Dry skin grade 1,[1],0
same,TEAE Dry skin grade 2,[1],0
same,TEAE Dry skin grade 3,[1],0
same,TEAE Dry skin grade 4,[1],0
same,TEAE Flank pain grade 1,[1],0
same,TEAE Flank pain grade 2,[1],0
same,TEAE Flank pain grade 3,[1],0
same,TEAE Flank pain grade 4,[1],0
same,TEAE Hypertension grade 1,[1],0
same,TEAE Hypertension grade 2,[1],1
same,TEAE Hypertension grade 3,[1],0
same,TEAE Hypertension grade 4,[1],0
same,TEAE Hypotension grade 1,[1],0
same,TEAE Hypotension grade 2,[1],0
same,TEAE Hypotension grade 3,[1],0
same,TEAE Hypotension grade 4,[1],0
same,TEAE Insomnia grade 1,[1],1
same,TEAE Insomnia grade 2,[1],0
same,TEAE Insomnia grade 3,[1],0
same,TEAE Insomnia grade 4,[1],0
same,TEAE Pain in extremity grade 1,[1],1
same,TEAE Pain in extremity grade 2,[1],0
same,TEAE Pain in extremity grade 3,[1],0
same,TEAE Pain in extremity grade 4,[1],0
same,TEAE Pruritus grade 1,[1],0
same,TEAE Pruritus grade 2,[1],0
same,TEAE Pruritus grade 3,[1],0
same,TEAE Pruritus grade 4,[1],0
same,TEAE Psychiatric disorders grade 1,[1],1
same,TEAE Psychiatric disorders grade 2,[1],0
same,TEAE Psychiatric disorders grade 3,[1],0
same,TEAE Psychiatric disorders grade 4,[1],0
same,TEAE Purpura grade 1,[1],0
same,TEAE Purpura grade 2,[1],0
same,TEAE Purpura grade 3,[1],0
same,TEAE Purpura grade 4,[1],0
same,TEAE Urinary retention grade 1,[1],0
same,TEAE Urinary retention grade 2,[1],0
same,TEAE Urinary retention grade 3,[1],0
same,TEAE Urinary retention grade 4,[1],0
same,TEAE Urinary tract disorder grade 1,[1],0
same,TEAE Urinary tract disorder grade 2,[1],0
same,TEAE Urinary tract disorder grade 3,[1],0
same,TEAE Urinary tract disorder grade 4,[1],0
same,"TEAE Abdominal pain upper, grade 2",DL4 800 mg QOD (n=3),1
same,"TEAE Abdominal pain, grade 1",DL4 800 mg QOD (n=3),1
same,"TEAE Abdominal pain, grade 3",DL4 800 mg QOD (n=3),1
same,"TEAE Asthenia, grade 1",DL4 800 mg QOD (n=3),1
same,"TEAE Chest pain, grade 1",DL4 800 mg QOD (n=3),1
same,"TEAE Constipation, grade 1",DL4 800 mg QOD (n=3),1
same,"TEAE Constipation, grade 2",DL4 800 mg QOD (n=3),1
same,"TEAE Cough, grade 1",DL4 800 mg QOD (n=3),1
same,"TEAE Diarrhoea, grade 1",DL4 800 mg QOD (n=3),3
same,"TEAE Fatigue, grade 1",DL4 800 mg QOD (n=3),1
same,"TEAE Nausea, grade 1",DL4 800 mg QOD (n=3),2
same,"TEAE Nausea, grade 2",DL4 800 mg QOD (n=3),1
same,"TRAE Abdominal Pain, > G3 (patients)","DL4 800 mg QOD oral, N = 3",0
same,"TRAE Abdominal Pain, All grades (patients)","DL4 800 mg QOD oral, N = 3",1
same,"TRAE Blood Lactic Acid increased, > G3 (patients)","DL4 800 mg QOD oral, N = 3",0
same,"TRAE Blood Lactic Acid increased, All grades (patients)","DL4 800 mg QOD oral, N = 3",0
same,"TRAE Constipation, > G3 (patients)","DL4 800 mg QOD oral, N = 3",0
same,"TRAE Constipation, All grades (patients)","DL4 800 mg QOD oral, N = 3",0
same,"TRAE Decreased appetite, > G3 (patients)","DL4 800 mg QOD oral, N = 3",0
same,"TRAE Decreased appetite, All grades (patients)","DL4 800 mg QOD oral, N = 3",0
same,"TRAE Diarrhoea, > G3 (patients)","DL4 800 mg QOD oral, N = 3",0
same,"TRAE Diarrhoea, All grades (patients)","DL4 800 mg QOD oral, N = 3",3
same,"TRAE Fatigue, > G3 (patients)","DL4 800 mg QOD oral, N = 3",0
same,"TRAE Fatigue, All grades (patients)","DL4 800 mg QOD oral, N = 3",1
same,"TRAE Insomnia, > G3 (patients)","DL4 800 mg QOD oral, N = 3",0
same,"TRAE Insomnia, All grades (patients)","DL4 800 mg QOD oral, N = 3",0
same,"TRAE Nausea, > G3 (patients)","DL4 800 mg QOD oral, N = 3",0
same,"TRAE Nausea, All grades (patients)","DL4 800 mg QOD oral, N = 3",3
same,"TRAE Vomiting, > G3 (patients)","DL4 800 mg QOD oral, N = 3",0
same,"TRAE Vomiting, All grades (patients)","DL4 800 mg QOD oral, N = 3",0
same,TEAE Adrenal insufficiency grade 1,[2],0
same,TEAE Adrenal insufficiency grade 2,[2],0
same,TEAE Adrenal insufficiency grade 3,[2],0
same,TEAE Adrenal insufficiency grade 4,[2],0
same,TEAE Anaemia grade 1,[2],0
same,TEAE Anaemia grade 2,[2],0
same,TEAE Anaemia grade 3,[2],0
